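Tested at 5 concentrations; 48 h exposure; 96-well plates; endpoints linearly interpolated, else capped at highest concentration. GI50 = concentration required for 50% inhibition of growth.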 Activity calls are given as the source filed them. Cut-off read from the data, not from the text of the source: active = GI50 up to about 1.1 µM and inactive = higher.
Key:
Assay in all cases: NCI tumour cell line growth inhibition, 48 h
A498 = system: A498
A549 = system: A549
EKVX = system: EKVX
HCT-116 = system: HCT-116
HT-29 = system: HT-29
K562 = system: K562
MCF7 = system: MCF7
Malme-3M = system: Malme-3M
NCI-H226 = system: NCI-H226
NCI-H23 = system: NCI-H23
SF-295 = system: SF-295
SF-539 = system: SF-539
SK-MEL-2 = system: SK-MEL-2
SK-OV-3 = system: SK-OV-3
SN12C = system: SN12C
SNB-75 = system: SNB-75
U-251 = system: U-251

Measured: GI50

CN(C)Cc1nsc(N(C)C)n1
inactive: A498 > 100 µM | A549 > 100 µM | EKVX > 100 µM | HCT-116 > 100 µM | HT-29 > 100 µM | K562 > 100 µM | MCF7 > 100 µM | Malme-3M > 100 µM | NCI-H226 > 100 µM | NCI-H23 > 100 µM | SF-295 > 100 µM | SF-539 > 100 µM | SK-MEL-2 > 100 µM | SK-OV-3 > 100 µM | SN12C > 100 µM | SNB-75 > 100 µM | U-251 > 100 µM

CO[C@@H]1C[C@H]2[C@@H]3CC[C@H]([C@H](C)COC(C)=O)[C@@]3(C)CC[C@@H]2[C@@]2(C)CC[C@H]3C[C@]312
inactive: A498 > 100 µM | A549 > 100 µM | EKVX > 100 µM | HCT-116 > 100 µM | HT-29 > 100 µM | K562 63.1 µM | MCF7 81.3 µM | Malme-3M > 100 µM | NCI-H226 > 100 µM | NCI-H23 > 100 µM | SF-295 > 100 µM | SF-539 > 100 µM | SN12C > 100 µM | SNB-75 > 100 µM | U-251 > 100 µM

Oc1ccc(-c2nn3c(CCCCCCCCc4nnc5sc(-c6ccc(O)cc6)nn45)nnc3s2)cc1
inactive: A498 > 100 µM | A549 > 100 µM | EKVX > 100 µM | HCT-116 > 100 µM | HT-29 > 100 µM | K562 > 100 µM | MCF7 > 100 µM | Malme-3M > 100 µM | NCI-H226 > 100 µM | NCI-H23 > 100 µM | SF-295 > 100 µM | SF-539 > 100 µM | SK-MEL-2 > 100 µM | SK-OV-3 > 100 µM | SN12C > 100 µM | SNB-75 > 100 µM | U-251 > 100 µM

CCCCc1ccc(Nc2nc3c(ncn3COCCBr)c(=O)[nH]2)cc1
inactive: A498 > 100 µM | A549 > 100 µM | EKVX > 100 µM | HCT-116 > 100 µM | HT-29 > 100 µM | K562 > 100 µM | MCF7 > 100 µM | Malme-3M > 100 µM | NCI-H226 > 100 µM | NCI-H23 > 100 µM | SF-295 > 100 µM | SF-539 > 100 µM | SK-MEL-2 > 100 µM | SK-OV-3 > 100 µM | SN12C > 100 µM | SNB-75 > 100 µM | U-251 > 100 µM

COc1cc2oc(=O)cc(C)c2cc1OC
inactive: A498 40.2 µM | A549 > 100 µM | EKVX > 100 µM | HCT-116 > 100 µM | HT-29 > 100 µM | K562 > 100 µM | MCF7 > 100 µM | Malme-3M > 100 µM | NCI-H226 > 100 µM | NCI-H23 > 100 µM | SF-295 > 100 µM | SF-539 > 100 µM | SK-MEL-2 > 100 µM | SK-OV-3 > 100 µM | SN12C > 100 µM | SNB-75 > 100 µM | U-251 > 100 µM

NS(=O)(=O)c1ccc(/N=N/c2ncccc2O)cc1
inactive: A498 > 100 µM | A549 > 100 µM | EKVX > 100 µM | HCT-116 39.3 µM | HT-29 > 100 µM | K562 40.2 µM | MCF7 57.9 µM | Malme-3M > 100 µM | NCI-H226 > 100 µM | NCI-H23 51.4 µM | SF-295 > 100 µM | SF-539 55.6 µM | SK-MEL-2 > 100 µM | SK-OV-3 > 100 µM | SN12C 71.8 µM | SNB-75 > 100 µM | U-251 > 100 µM

CCOC(=O)c1ccc(NC(NC(=O)CC)(C(F)(F)F)C(F)(F)F)cc1
inactive: A498 > 100 µM | A549 > 100 µM | EKVX > 100 µM | HCT-116 > 100 µM | HT-29 > 100 µM | K562 39.3 µM | MCF7 > 100 µM | Malme-3M > 100 µM | NCI-H226 > 100 µM | NCI-H23 > 100 µM | SF-295 > 100 µM | SF-539 > 100 µM | SK-MEL-2 > 100 µM | SK-OV-3 > 100 µM | SNB-75 > 100 µM | U-251 > 100 µM

C=C(C)C1CCC2=CC(CC3(C)OC3C3=CC(C(=O)OC)=C(C1)O3)OC2=O (stereo not given)
inactive: A498 > 100 µM | A549 > 100 µM | EKVX > 100 µM | HCT-116 > 100 µM | HT-29 > 100 µM | K562 > 100 µM | MCF7 > 100 µM | Malme-3M > 100 µM | NCI-H226 > 100 µM | NCI-H23 > 100 µM | SF-295 > 100 µM | SF-539 73.3 µM | SK-MEL-2 > 100 µM | SN12C > 100 µM | SNB-75 56.2 µM | U-251 > 100 µM

Cc1ncc([N+](=O)[O-])n1CCNC(=O)Cn1ccnc1[N+](=O)[O-]
inactive: A498 > 100 µM | A549 > 100 µM | HCT-116 > 100 µM | HT-29 > 100 µM | K562 > 100 µM | MCF7 > 100 µM | Malme-3M > 100 µM | NCI-H226 > 100 µM | NCI-H23 > 100 µM | SF-295 > 100 µM | SF-539 > 100 µM | SK-MEL-2 > 100 µM | SK-OV-3 > 100 µM | SN12C > 100 µM | SNB-75 > 100 µM | U-251 > 100 µM

C=CCn1c(-c2ccc([N+](=O)[O-])cc2)csc1=N
inactive: A498 > 100 µM | A549 35.5 µM | EKVX 16.4 µM | HCT-116 37.3 µM | HT-29 32 µM | K562 9.59 µM | MCF7 25.4 µM | Malme-3M 76.9 µM | NCI-H226 41.6 µM | NCI-H23 30 µM | SF-295 18.4 µM | SK-MEL-2 91.2 µM | SK-OV-3 54.7 µM | SN12C > 100 µM | SNB-75 19.5 µM | U-251 54.1 µM

Cc1cc(=O)oc2cc(O)c(CN(C)CC(=O)O)cc12
inactive: A498 > 100 µM | A549 > 100 µM | EKVX > 100 µM | HCT-116 > 100 µM | HT-29 > 100 µM | K562 > 100 µM | MCF7 > 100 µM | Malme-3M > 100 µM | NCI-H226 > 100 µM | NCI-H23 > 100 µM | SF-539 > 100 µM | SK-MEL-2 > 100 µM | SN12C > 100 µM | SNB-75 > 100 µM | U-251 > 100 µM

CCN(CC)/C(SCc1ccccc1)=C(\C(Cl)=C(Cl)Cl)[N+](=O)[O-]
inactive: A498 13.6 µM | A549 16.6 µM | EKVX 22.9 µM | HCT-116 14.7 µM | HT-29 25.8 µM | K562 25.8 µM | MCF7 16.8 µM | Malme-3M 10.2 µM | NCI-H226 18.9 µM | NCI-H23 17.8 µM | SF-295 36.1 µM | SF-539 19.7 µM | SK-MEL-2 21.7 µM | SK-OV-3 39.6 µM | SN12C 21.1 µM | U-251 22.9 µM

From ChEMBL document CHEMBL1201862, “PubChem BioAssay data set” (2004)
